Measured values as given in paper PMC8343220, “The selectivity of α‐adrenoceptor agonists for the human α1A, α1B, and α1D‐adrenoceptors” (Pharmacology Research & Perspectives, 2021).

Tests used:
[1] = target: T1, human α1A‐adrenoceptor (Homo sapiens, UniProt P35348); assay: ^3H‐prazosin whole‐cell radioligand binding, CHO‐α1A cells
T1 construct: expressed in transfected cells; host or cells: CHO-K1
T1 sequence (P35348 1-466): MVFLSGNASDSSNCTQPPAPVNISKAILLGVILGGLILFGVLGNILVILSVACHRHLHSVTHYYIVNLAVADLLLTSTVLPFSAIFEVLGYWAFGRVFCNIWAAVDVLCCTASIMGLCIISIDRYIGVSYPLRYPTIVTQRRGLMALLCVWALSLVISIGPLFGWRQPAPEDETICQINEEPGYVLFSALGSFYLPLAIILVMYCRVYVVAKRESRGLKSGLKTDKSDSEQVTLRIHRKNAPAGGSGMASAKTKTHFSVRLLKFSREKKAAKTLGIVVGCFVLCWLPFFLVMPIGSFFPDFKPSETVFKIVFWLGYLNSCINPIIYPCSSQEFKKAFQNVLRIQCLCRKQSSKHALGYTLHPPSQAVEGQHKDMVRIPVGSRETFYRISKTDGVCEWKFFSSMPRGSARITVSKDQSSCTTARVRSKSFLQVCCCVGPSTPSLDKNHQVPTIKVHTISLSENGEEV

[2] = target: T2, human α1B‐adrenoceptor (Homo sapiens, UniProt P35368); assay: ERK1/2‐phosphorylation (Surefire Alphascreen), CHO‐α1B cells; type: cell-based
T2 construct: expressed in transfected cells; host or cells: CHO-K1
T2 sequence (P35368 1-520): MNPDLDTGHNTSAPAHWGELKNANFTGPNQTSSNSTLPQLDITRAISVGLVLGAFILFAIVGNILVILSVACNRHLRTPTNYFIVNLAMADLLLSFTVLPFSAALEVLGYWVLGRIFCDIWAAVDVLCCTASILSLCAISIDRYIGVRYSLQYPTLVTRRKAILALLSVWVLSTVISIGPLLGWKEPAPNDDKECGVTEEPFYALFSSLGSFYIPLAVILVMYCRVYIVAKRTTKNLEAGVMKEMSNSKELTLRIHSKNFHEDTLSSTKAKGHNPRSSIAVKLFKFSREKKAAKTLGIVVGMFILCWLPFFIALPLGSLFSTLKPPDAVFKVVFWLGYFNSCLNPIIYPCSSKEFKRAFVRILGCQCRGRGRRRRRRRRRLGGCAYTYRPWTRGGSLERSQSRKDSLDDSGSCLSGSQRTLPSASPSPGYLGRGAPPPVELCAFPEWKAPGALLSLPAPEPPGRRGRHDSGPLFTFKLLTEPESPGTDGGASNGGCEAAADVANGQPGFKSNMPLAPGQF

[3] = system: parental CHO cell line without any transfected receptors; assay: Forskolin‐stimulated cAMP accumulation, parent CHO cells without transfected receptors; type: cell-based, Chinese hamster; details: CHO cells without transfected receptors; response at 100μM only, EC50 not obtainable; % of forskolin-stimulated cAMP
[4] = system: parental CHO cell line without any transfected receptors; assay: Intracellular calcium mobilization, parent CHO cells without transfected receptors; type: cell-based, Chinese hamster; details: Cricetulus griseus; CHO cells without transfected receptors; response at maximum concentration used (c2), as % of ionomycin (10μM) response; mean ± s.e.m.; read-out: Intracellular calcium release % ionomycin
[5] = target: T1, human α1A‐adrenoceptor; assay: ^3H‐cAMP accumulation in the presence of 10 μM forskolin, CHO‐α1A cells; type: cell-based; details: CHO‐α1A cells
[6] = target: T2, human α1B‐adrenoceptor; assay: Intracellular free calcium mobilization, CHO‐α1B cells; type: cell-based
[7] = target: T2, human α1B‐adrenoceptor; assay: ^3H‐cAMP accumulation, CHO‐α1B cells; type: cell-based; details: CHO‐α1B cells
[8] = system: parental CHO cell line without any transfected receptors; assay: ERK1/2‐phosphorylation, parent CHO cells without transfected receptors; type: cell-based, Chinese hamster; details: Cricetulus griseus, CHO; read-out: ERK1/2-phosphorylation % PDBu at 100μM
[9] = target: T1, human α1A‐adrenoceptor; assay: ^3H‐cAMP accumulation, CHO‐α1A cells; type: cell-based; details: CHO‐α1A cells
[10] = target: T2, human α1B‐adrenoceptor; assay: ^3H‐cAMP accumulation in the presence of 10 μM forskolin, CHO‐α1B cells; type: cell-based; details: CHO‐α1B cells
[11] = target: T3, human α1D‐adrenoceptor (full length) (Homo sapiens, UniProt P25100); assay: ERK1/2‐phosphorylation (Surefire Alphascreen), CHO‐α1D cells; type: cell-based
T3 construct: human α1D‐adrenoceptor (full length) were used; expressed in transfected cells; host or cells: CHO-K1
T3 sequence (P25100 1-572): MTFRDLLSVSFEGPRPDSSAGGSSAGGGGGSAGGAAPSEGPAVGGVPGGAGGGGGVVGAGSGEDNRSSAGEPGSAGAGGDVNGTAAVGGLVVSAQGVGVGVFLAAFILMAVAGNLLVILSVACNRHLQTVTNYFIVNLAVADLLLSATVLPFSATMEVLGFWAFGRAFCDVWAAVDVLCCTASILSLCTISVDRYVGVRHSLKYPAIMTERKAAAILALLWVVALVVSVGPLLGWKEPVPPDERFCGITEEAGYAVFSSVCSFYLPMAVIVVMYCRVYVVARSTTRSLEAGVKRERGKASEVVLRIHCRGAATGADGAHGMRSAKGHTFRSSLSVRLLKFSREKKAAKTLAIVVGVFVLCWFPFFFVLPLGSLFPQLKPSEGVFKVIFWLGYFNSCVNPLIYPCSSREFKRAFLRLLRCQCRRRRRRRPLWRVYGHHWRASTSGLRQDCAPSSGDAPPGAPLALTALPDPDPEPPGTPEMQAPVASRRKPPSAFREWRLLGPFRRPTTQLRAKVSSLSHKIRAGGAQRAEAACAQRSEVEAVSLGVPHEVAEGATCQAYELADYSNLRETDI

[12] = target: T1, human α1A‐adrenoceptor; assay: Intracellular free calcium mobilization, CHO‐α1A cells; type: cell-based
[13] = target: T2, human α1B‐adrenoceptor; assay: ^3H‐prazosin whole‐cell radioligand binding, CHO‐α1B cells
[14] = target: T1, human α1A‐adrenoceptor; assay: ERK1/2‐phosphorylation (Surefire Alphascreen), CHO‐α1A cells; type: cell-based
[15] = target: T3, human α1D‐adrenoceptor (full length); assay: Intracellular free calcium mobilization, CHO‐α1D cells; type: cell-based
[16] = target: T3, human α1D‐adrenoceptor (full length); assay: ^3H‐prazosin whole‐cell radioligand binding, CHO‐α1D cells
[17] = read-out: ERK1/2‐phosphorylation Log EC50 (converted)
[18] = fold increase of the forskolin response
[19] = read-out: Intracellular calcium release Log EC50 (converted)

Question: What does the source list for `Cc1cccc(C(C)c2cnc[nH]2)c1C` (centres unmarked) [Medetomidine]?
Answer: Affinity selectivity ratio α1A vs α1B [1]: 6.2 fold; Kd ([1]; Log KD α1A, ^3H‐prazosin whole cell binding): 2340 nM; ERK1/2‐phosphorylation % PDBu [2]: 55.2 ± 5.3%; EC50 [2, 17]: 138 nM; cAMP accumulation (in presence of forskolin) % forskolin-stim cAMP at 100μM [3]: 88.4 ± 3.2%; Emax [4]: 11.7 ± 2.4%; EC50 ([5]; 10 μM forskolin, read-out: cAMP accumulation (in presence of forskolin) Log EC50 (converted)): 126 nM; cAMP accumulation (in presence of forskolin) Fold increase [5, 18]: 2.12 ± 0.09 fold; Intracellular calcium release % ionomycin [6]: 43.0 ± 3.4%; Log efficacy ratio KD /EC50 [6]: 2.09; EC50 [6, 19]: 117 nM; cAMP accumulation % forskolin ([7]; % forskolin maximum response): 4.6 ± 0.9%; EC50 ([7]; read-out: cAMP accumulation Log EC50 (converted)): 115 nM; Emax at 100 µM [8]: 7.9 ± 3.8%; EC50 ([9]; 5 h, read-out: cAMP accumulation Log EC50 (converted)): 646 nM; cAMP accumulation % forskolin ([9]; % of 10 µM forskolin response): 46.3 ± 5.2%; cAMP accumulation (in presence of forskolin) Fold increase [10, 18]: 1.52 ± 0.04 fold; EC50 ([10]; in presence of forskolin, read-out: cAMP accumulation (in presence of forskolin) Log EC50 (converted)): 93.3 nM; ERK1/2‐phosphorylation % PDBu [11]: 22.6 ± 5.1%; EC50 [11, 17]: 7240 nM; Intracellular calcium release % ionomycin [12]: 57.2 ± 1.8%; Log efficacy ratio KD /EC50 [12]: 2.06; EC50 [12, 19]: 20.4 nM; Kd ([13]; Log KD α1B, ^3H‐prazosin whole cell binding): 14500 nM; Kd ([13]; Log KD, ^3H‐prazosin binding): 14500 nM; ERK1/2‐phosphorylation % PDBu [14]: 85.8 ± 3.3%; EC50 [14, 17]: 31.6 nM; Intracellular calcium release % Ionomycin at 100 µM [15]: 11.5 ± 2.3%; Affinity selectivity ratio α1A vs α1D [16]: 1.1 fold; Affinity selectivity ratio α1B vs α1D [16]: 6.8 fold; Kd ([16]; 3H‐prazosin binding Log KD): 2140 nM; Kd ([16]; Log KD α1D, ^3H‐prazosin whole cell binding): 2140 nM
